From paper PMC12363179, “Mapping the sialic acid-binding sites of LuIII and H-1 parvovirus” (Journal of Virology, 2025)

How the values were obtained:
LuIII VLP (VP2) [1] = target: T1, LuIII VLP (VP2) (LuIII virus, UniProt P36310); assay: CFG glycan microarray v4.[…], antibody fluorescence; format: binding; conditions: immobilised glycan; unlabelled VLP 0.2 mg/mL, PBS, room temperature, 1 h
T1 construct: VP2-only virus-like particle without DNA, T=1 icosahedral 60-mer, baculovirus/Sf9; residues 37-587 modelled

LuIII VLP (VP2) [2] = target: T1, LuIII VLP (VP2); assay: Max-Planck glycan microarray, fluorescence; format: binding; conditions: immobilised glycan; DyLight488-labelled VLP 0.1 mg/mL, PBS-MK (MgCl2, KCl), 4 °C overnight
Description: Max-Planck glycan microarray, fluorescence on LuIII VLP (VP2)

[3] = target: H-1 parvovirus virus-like particle (VLP) composed of VP2, the major capsid protein (H-1 parvovirus); assay: cryo-EM structure; VLPs of VP2 in 10 mM Tris-HCl, 500 mM NaCl, 8 mM CaCl2, 2 mM MgCl2, pH 7.5, with or without glycan (s(LN)3 or s(Le^x)2); icosahedral reconstruction in cisTEM, 60mer models fitted
[4] = target: LuIII virus-like particle (VLP) composed of VP2, the major capsid protein (parvovirus LuIII); assay: as above
MVM / MVMp VLP (VP2) = target: T2, MVM / MVMp VLP (VP2) (Murine minute virus strain MVM prototype, UniProt P03137); assay: Max-Planck glycan microarray, fluorescence; format: binding; conditions: immobilised glycan; DyLight488-labelled VLP 0.4 mg/mL, PBS-MK (MgCl2, KCl), 4 °C overnight
T2 construct: VP2-only virus-like particle without DNA, T=1 icosahedral 60-mer, baculovirus/Sf9; DyLight488-labelled
Description: Max-Planck glycan microarray, fluorescence on MVM / MVMp VLP (VP2)

Compound | RFU (LuIII VLP (VP2) [1]) | RFU (LuIII VLP (VP2) [2]) [RFU] | RFU (MVM / MVMp VLP (VP2)) [RFU] | also measured
CC(=O)N[C@H]1[C@H](O[C@H]2[C@@H](O)[C@@H](CO)O[C@@H](O[C@H]3[C@H](O)[C@@H](O)[C@H](OCCCN)O[C@@H]3CO)[C@@H]2O)O[C@H](CO)[C@@H](O)[C@@H]1O[C@@H]1O[C@H](CO)[C@H](O)[C@H](O)[C@H]1O[C@@H]1O[C@@H](C)[C@@H](O)[C@@H](O)[C@@H]1O [compound 65, Fucα1-2Galβ1-3GlcNAcβ1-3Galβ1-4Glcβ-Sp8] | 601 ± 93 RFU |  |  | 
CC(=O)N[C@H]1[C@H](OCCCN)O[C@H](CO)[C@@H](O[C@@H]2O[C@H](CO)[C@H](O)[C@H](O[C@]3(C(=O)O)C[C@H](O)[C@@H](NC(C)=O)[C@H]([C@H](O)[C@H](O)CO)O3)[C@H]2O)[C@@H]1O[C@@H]1O[C@@H](C)[C@@H](O)[C@@H](O)[C@@H]1O [compound 253, Neu5Acα2-3Galβ1-4(Fucα1-3)GlcNAcβ-Sp8] | 1,685 ± 423 RFU |  |  | 
CC(=O)N[C@H]1[C@H](O[C@H]2[C@@H](O)[C@@H](CO)O[C@@H](O[C@H]3[C@H](O)[C@@H](CO)O[C@@H](OCCN)[C@@H]3NC(C)=O)[C@@H]2O)O[C@H](CO)[C@@H](O[C@@H]2O[C@H](CO)[C@H](O)[C@H](O[C@]3(C(=O)O)C[C@H](O)[C@@H](NC(C)=O)[C@H]([C@H](O)[C@H](O)CO)O3)[C@H]2O)[C@@H]1O [compound 293, Neu5Acα2-3Galβ1-4GlcNAcβ1-3Galβ1-3GlcNAcβ-Sp0] | 728 ± 180 RFU |  |  | 
Fucα1-3(Neu5Acα2-3Gαlβ1-4)GlcNAcβ1-3Gαlβ1-4Glcβ-AH [compound 7] |  | 151 ± 23 |  | 
H-1 parvovirus virus-like particle (VLP) composed of VP2, the major capsid protein (natural protein) |  |  |  | stoichiometry N [3]: 60
LuIII virus-like particle (VLP) composed of VP2, the major capsid protein (natural protein) |  |  |  | stoichiometry N [4]: 60
Neu5Acα2-3Gαlβ1-4GlcNAcβ1-3Gαlβ1-4Glcβ-AH [compound 6] |  | 106 ± 37 | 153 ± 24 | 
Neu5Acα2-3Gαlβ1-4Glcβ-AH [compound 9] |  | 267 ± 44 | 109 ± 102 | 
Neu5Acα2-6Gαlβ1-4GlcNAc-6-sulfαteβ-AH [compound 10] |  |  | 203 ± 36 | 
Neu5Acα2-6Gαlβ1-4Glcβ-AH [compound 8] |  | 105 ± 13 |  | 
